# Experimental data published in patent publication US20050037436A1, “Test systems and the use thereof for identifying and characterizing compounds” (priority 2000, published 2005).
# How the values were obtained:
# HC110-R = type: binding, Haemonchus contortus
# Excerpt: Since denaturation of proteins is necessary for carrying out SDS-PAGE, there may be destruction of conformation-dependent epitopes. Antibodies or proteins which specifically recognize such epitopes may therefore no longer bind. […] BAY44-4400 differs from PF1022A by 2 morpholine residues which are covalently bonded to the phenyl rings of the two D-phenyllactyl radicals of PF1022A. […] For this purpose, total protein from untransfected HEK-293 cells and HEK-293 cells which transiently express HC110-R-Myc/His, and from the 54 kDa N terminus and the 21 kDa C terminus of HC110-R which were expressed in E. coli, were fractionated by SDS-PAGE, renatured and blotted in the usual way. […] In addition, a partially renatured SDS polyacrylamide gel with the protein fractions of untransfected HEK-293 cells, HEK-293 cells transiently transfected with HC110-R-Myc/His, and the N terminus of HC110-R expressed in E. coli and total protein from H. contortus was blotted, incubated with PF1022A-biotin and detected using streptavidin HRP.
# [1] = tested on: untransfected HEK-293 cells; experiment: Ca2+ imaging of untransfected or GFP-transfected HEK-293 cells (control); type: cell-based, human
# Method: The intracellular free Ca^2+ concentration [Ca^2+]i was measured in COS-7 and HEK293 cells transiently transfected with the HC110-R-EGFP or β2-AR-EGFP construct using the calcium imaging method (see also FIG. 11). In each case 2×10^5 COS-7 and HEK293 cells were applied to a 42 mm cover glass coated with 1% gelatine in 55 mm tissue culture dishes with 5 ml of DMEM medium (with 10% FCS and pen/strep). The transfection took place with the aid of the non-liposomal transfection reagent FuGENE 6 (Roche Molecular Biochemicals, Mannheim). […] Constructs of the HC110-R full-length clone with a GFP tag fused in the correct reading frame, and the complete cDNA of the β2-adrenergic receptor which had likewise been provided with a GFP tag at the 3′ end, were transfected. […]
# Loading of the cells with 1 μM Fura-2/acetoxymethyl ester (Fura-2/AM) (Sigma, Deisenhofen) took place 48 h after the transfection in an Na^+-HBS solution (150 mM NaCl; 5.4 mM KCl; 1.8 mM CaCl2; 0.8 mM MgSO4 7H2O; 20 mM glucose; 20 mM Hepes in H2O, pH 7.3) at 37° C., 5% CO2 and 95% humidity for 30 min. After the incubation, the cells loaded with Fura-2/AM were examined under an inverted microscope (Zeiss, Axiovert, Germany) and, in parallel with this, in a digital imaging fluorescence microscope (PTI) and differentiated into transfected and untransfected cells at a wavelength of 440 and 490 nm respectively. […]
# nematodes = experiment: Anthelmintic / neuropharmacological activity on nematodes
structure (smiles),measurement,setting,value
"CC(C)C[C@H]1C(=O)O[C@H](Cc2ccc(N3CCOCC3)cc2)C(=O)N(C)[C@@H](CC(C)C)C(=O)O[C@H](C)C(=O)N(C)[C@@H](CC(C)C)C(=O)O[C@H](Cc2ccc(N3CCOCC3)cc2)C(=O)N(C)[C@@H](CC(C)C)C(=O)O[C@H](C)C(=O)N1C [BAY44-4400, cyclo(-D-Lac-L-MeLeu-D-p-morpholinyl-PhLac-L-MeLeu-)]",HC110-R-specific binding in a Western blot,"HC110-R; denatured proteins, no renaturation",not identifiable
same,band in HEK-293 cells expressing HC110-R-Myc/His,"HC110-R; renatured with urea, no band in untransfected cells",distinct band 116 kDa in size
same,binding to 54 kDa N terminus of HC110-R,"HC110-R; renatured, fragment expressed in E. coli",bound to the 54 kDa N terminus of HC110-R
same,changes caused by substance,[1],causes no changes in untransfected cells
same,anthelmintic / nematicidal activity in words,nematodes,very effective nematicide
